Reference: article PMC9617852, “In vitro and in vivo assessment of the antioxidant potential of isoxazole derivatives” (Scientific Reports, 2022)
≈ marks a conversion by molar mass, not a printed value. Like-named read-outs stand apart in the source and are kept apart here. Marks after values point to notes of the source that are not given here. Values belong to the compound of their own block, whether it stands above or below them.

Legend:
[1] = DPPH free radical scavenging assay (in vitro antioxidant activity); details: DPPH in methanol, 30 min in the dark at 25 °C, absorbance 517 nm
Description: To determine the antioxidant activities, the 2,2-Diphenyl-1-picrylhydrazyl (DPPH) was used, which is considered one of the most widely used methods for measuring the in vitro antioxidant activity of various chemical compounds. This colorimetric method is accurate, easy to perform, and economical, providing a screening of the general activity of the antioxidants and is based on a stable and synthetic radical, DPPH[15].
When DPPH reacts with an antioxidant compound, its free radical property is lost and its color changes from violet to yellow. The decrease in absorbance at 517 nm induced by antioxidants determines the reduction ability of DPPH.
The free DPPH radical scavenging assay was used to measure the antioxidant activity of the isoxazole derivatives. A 1000 μg/ml stock solution of each compound was prepared in methanol. In addition, a 1000 μg/ml solution of Trolox was also prepared (the reference standard). […] Optical densities were then measured with a spectrophotometer at a wavelength of 517 nm. The following equation was used to calculate % DPPH inhibition for each compound, with Trolox as the standard compound: DPPHinhibition%=AB-Ats/AB×100% where, AB is the recorded absorbance of the blank solution, and Ats is the recorded absorbance of the tested sample solution[25].

Water solubility = assay type: physicochemical; details: can be dissolved with propylene glycol
[2] = molecular target: T1, porcine pancreatic α-amylase (Sus scrofa, UniProt P00690); experiment: α-Amylase inhibitory assay; assay type: biochemical
T1 construct: purchased Alfa Aesar, Sigma-Aldrich, and Frutarom (UK)
T1 sequence (P00690 16-511): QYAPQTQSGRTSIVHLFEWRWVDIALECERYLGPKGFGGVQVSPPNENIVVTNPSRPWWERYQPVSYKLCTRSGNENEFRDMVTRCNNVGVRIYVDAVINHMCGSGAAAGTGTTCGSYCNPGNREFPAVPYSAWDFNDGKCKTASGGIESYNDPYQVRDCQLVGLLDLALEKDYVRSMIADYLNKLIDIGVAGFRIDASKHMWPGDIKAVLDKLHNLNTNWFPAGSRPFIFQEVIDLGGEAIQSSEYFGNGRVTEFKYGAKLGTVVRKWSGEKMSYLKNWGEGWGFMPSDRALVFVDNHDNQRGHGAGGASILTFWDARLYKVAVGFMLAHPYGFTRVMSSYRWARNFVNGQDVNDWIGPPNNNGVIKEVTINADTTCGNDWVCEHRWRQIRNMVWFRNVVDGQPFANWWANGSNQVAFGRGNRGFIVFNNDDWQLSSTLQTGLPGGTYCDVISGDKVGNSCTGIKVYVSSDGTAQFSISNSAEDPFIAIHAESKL
Experimental: A 5 mg of each fraction was dissolved in a few milliliters of 10% DMSO, and then further dissolved up to 100 ml in 0.02 M Na2HPO4/NaH2PO4, 0.006 M NaCl, pH 6.9 to give finally stock solutions with concentrations of 1000 μg/ml. From these, the following dilutions were prepared of 10, 50, 70, 100, and 500 μg/ml, using 10% DMSO as the diluent. A 0.2 ml volume of 2 units/ml porcine pancreatic α-amylase was mixed with 0.2 ml compounds dilution and was incubated for 10 min at 30 °C. After incubation, 0.2 ml of a freshly prepared 1% starch solution in water was added, and the tubes were then incubated for at least three more minutes. At this point, the reaction was stopped by the addition of 0.2 ml 3,5-dinitro salicylic acid (DNSA) color reagent and was diluted with 5 ml of distilled water, before being heated at 90 °C for 10 min in a water bath. The mixture was then cooled to room temperature, and the absorbance was measured at 540 nm. The blank control was prepared using the same quantities described above, but replacing the compound solution with 0.2 ml buffer.

[3] = tested on: total antioxidant capacity (TAC) in the blood of mice; experiment: In vivo total antioxidant capacity (TAC) in mice, Abcam ab65329 kit; details: for TAC (Trolox equivalents): plasma
Experimental: For this purpose, the TAC was determined using a commercially available assay kit (Abcam ab65329), in four groups of mice: 2a treated (5 mg/kg over 6 days, n = 5), 2a treated (10 mg/kg over 6 days, n = 5), quercetin treated (positive control; 10 mg/kg over 6 days, n = 5), and vehicle-treated (negative control; n = 5). All mice were sacrificed seven days after the treatment (or the first administration of the vehicle).
The absorbance values of the used kit were plotted against a serial concentration of Trolox standards in the concentration range of (4–20 nM). […] The generated regression line equation was utilized to calculate the Trolox equivalent total antioxidant activity of the injected compound and positive quercetin control of the experimental mice. The average results of the total antioxidant activity of ten replicates of plasma samples were reported. […] The summary of the results is shown in (Fig. 6).
Twenty mice were divided into four groups randomly, with five mice in each. The first group was administered with our novel compound 2a (5 mg/kg), the second group with the same compound (10 mg/kg), the third group with Quercetin (10 mg/kg) as a positive control, and the fourth group with normal saline (20%) and propylene glycol 80% as a negative control group.
To test the TAC of the novel compound, four groups of mice were injected intraperitoneal (i.p.) and employed with vehicle (80% polyethylene glycol (PG) and 20% normal saline (NS) for 6 days. The first and second groups were injected with 5 and 10 mg/kg/day of 2a compound dissolved in the same vehicle, respectively. The third group was injected with a known antioxidant agent positive control (Quercetin), with 10 mg/kg/day, and the last group was the negative control group (80% polyethylene glycol (PG) and 20% Normal saline (NS). All mice were anesthetized with ketamine (60 mg/kg) and xylazine (5 mg/kg) and sacrificed 24 h after the final injection. Then, the mouse blood sample was collected and centrifuged to collect serum. For long-term stability, serum was frozen at − 20 °C[27],[28].
All mice were sacrificed after seven days of treatment by placing each mouse in a plexiglass chamber with 5% of isoflurane anesthetic drug, for 5 min, and then when the mouse was fully sedated, they were sacrificed by rapid decapitation. Trunk blood was collected in EDTA-coated tubes for use in the kit assay[29],[30].
Using DPPH assay that basis on measures the total antioxidant capacity (TAC) of compounds that can transfer hydrogen atoms. […] Antioxidant compounds, which can transfer an electron to DMPD• + , cause a discoloration of the solution. […] The reduced Cu + ion is chelated with a colorimetric probe giving a broad absorbance peak around 570 nm, proportional to the total antioxidant capacity. […]

[4] = molecular target: T2, porcine pancreatic lipase (Sus scrofa, UniProt P00591); experiment: Porcine pancreatic lipase inhibition assay; assay type: biochemical; details: substrate p-nitrophenyl butyrate, 37 °C, 410 nm; highest concentration 400 µg/ml
T2 construct: purchased Alfa Aesar, Sigma-Aldrich, and Frutarom (UK)
T2 sequence (P00591 1-450): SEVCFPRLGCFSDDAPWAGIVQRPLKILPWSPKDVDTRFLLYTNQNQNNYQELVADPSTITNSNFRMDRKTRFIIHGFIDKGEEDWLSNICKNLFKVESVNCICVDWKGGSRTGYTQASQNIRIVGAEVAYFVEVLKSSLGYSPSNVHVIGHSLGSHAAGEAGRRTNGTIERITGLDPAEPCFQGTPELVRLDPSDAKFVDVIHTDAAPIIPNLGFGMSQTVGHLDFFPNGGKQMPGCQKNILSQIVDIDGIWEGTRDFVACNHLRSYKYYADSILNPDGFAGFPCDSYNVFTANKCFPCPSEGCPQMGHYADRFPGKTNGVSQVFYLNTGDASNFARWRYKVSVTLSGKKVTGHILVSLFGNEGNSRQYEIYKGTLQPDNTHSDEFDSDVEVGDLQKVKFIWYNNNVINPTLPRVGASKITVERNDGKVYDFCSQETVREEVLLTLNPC
Experimental: Stock solutions of 500 µg/ml were made from each compound in 10% DMSO. From these, a dilution series of five concentrations of 50, 100, 200, 300, and 400 μg/ml were made. A 1 mg/ml stock solution of porcine pancreatic lipase in Tris–HCl buffer was prepared freshly just before use. The substrate, p-nitrophenyl butyrate (PNPB) was prepared by dissolving 20.9 mg in 2 ml acetonitrile. For each working solution, 0.1 ml porcine pancreatic lipase was mixed with 0.2 ml of compound solution from each member of the dilution series. Tris–HCl was added to make the final volume of the working solutions 1 ml, and they were incubated at 37 °C for 15 min. After incubation, 0.1 ml p-nitrophenyl butyrate solution was added to each test tube. The mixture was then incubated for a further 30 min at 37 °C. Pancreatic lipase activity was determined by measuring the hydrolysis of PNPB into p-nitrophenolate at 410 nm, using a UV spectrophotometer. […] Percentage lipase inhibition by compound dilution was calculated with the following equation: Lipaseinhibition%=AB-Ats/AB×100% where, AB is the recorded absorbance of the blank solution, and Ats is the recorded absorbance of the tested sample solution[31].

Hep3B = tested on: Hep3B; set-up: method as in doi:10.1515/chem-2021-0078; details: Hep3B cancer cell line; cited from earlier work
[5] = set-up: method as in PMID 33763478; details: similar isoxazole series, earlier report; cited from earlier work

IC50 DPPH [1]: 0.45 ± 0.21 µg/mL (≈ 1.28 µM)
water solubility (Water solubility): low water solubility
IC50 ([2]; starch substrate, DNSA, 540 nm, highest concentration 500 µg/ml): > 1420 µM
IC50 [4]: > 1140 µM
Compound: Cc1onc(-c2ccc(F)cc2)c1C(=O)Nc1ccc(C(C)(C)C)cc1 [2a, N-(4-(tert-butyl)phenyl)-3-(4-fluorophenyl)-5-methylisoxazole-4-carboxamide]
TAC (Trolox equivalents) ([3]; 5 mg/kg i.p. over 6 days): 640.2 nmol L–1
TAC (Trolox equivalents) ([3]; 10 mg/kg i.p. over 6 days): 682.9 nmol L–1
TAC relative to mice treated with the positive control Quercetin ([3]; i.p.): two folds greater
IC50 against Hep3B (Hep3B): 9.58 µg/mL (≈ 27.2 µM)

Compound: C[C@H]1O[C@H](O[C@H]2[C@H](O)[C@@H](O)[C@@H](O[C@H]3[C@H](O)[C@@H](O)C(O)O[C@@H]3CO)O[C@@H]2CO)[C@H](O)[C@@H](O)[C@@H]1N[C@H]1C=C(CO)[C@@H](O)[C@H](O)[C@H]1O (stereo partly drawn) [Acarbose, reference compound]
inhibition at 500 µg/mL ([2]; read-out: percentage of inhibition of α-amylase): 72.5%

Compound: Cc1onc(-c2ccccc2Cl)c1C(=O)Nc1ccc(C(C)(C)C)cc1 [N-(4-(tert-butyl)phenyl)-3-(2-chlorophenyl)-5-methylisoxazole-4-carboxamide]
IC50 DPPH [5]: 7.8 µg/mL (≈ 21.1 µM)

Compound: O=c1c(O)c(-c2ccc(O)c(O)c2)oc2cc(O)cc(O)c12 [Quercetin, reference compound]
TAC (Trolox equivalents) ([3]; 10 mg/kg i.p. over 6 days): 221.0 nmol L–1

IC50 DPPH [1]: 3.10 ± 0.92^a µg/ml
Compound: Cc1c(C)c2c(c(C)c1O)CCC(C)(C(=O)O)O2 (stereo not drawn) [Trolox, reference compound]
